From the NIST ThermoML archive (doi:10.1021/je900660x)
Numbers after ± are expanded uncertainties.

Tests used:
[1] = for viscosity / thermal conductivity / mass density: 101.33 kPa, Liquid; for thermal conductivity: Hot wire method; for mass density: Vibrating tube method
[2] = molar heat capacity at constant pressure; settings: 101.33 kPa, Liquid, Large sample (1 g) DSC

| Structure (SMILES) | viscosity ([1]; 313.15 K) [mPa·s] | mass density ([1]; 313.15 K) [kg/m3] | viscosity ([1]; 323.15 K) [mPa·s] | mass density ([1]; 323.15 K) [kg/m3] | viscosity ([1]; 333.15 K) [mPa·s] | mass density ([1]; 333.15 K) [kg/m3] | viscosity ([1]; 343.15 K) [mPa·s] | mass density ([1]; 343.15 K) [kg/m3] | viscosity ([1]; 353.15 K) [mPa·s] | mass density ([1]; 353.15 K) [kg/m3] | viscosity ([1]; 363.15 K) [mPa·s] | mass density ([1]; 363.15 K) [kg/m3] | Glass transition temperature ([1]; DTA) [°C] | molar heat capacity at constant pressure ([2]; 293.15 K) [J/K/mol] | molar heat capacity at constant pressure ([2]; 298.15 K) [J/K/mol] | molar heat capacity at constant pressure ([2]; 303.15 K) [J/K/mol] | molar heat capacity at constant pressure ([2]; 313.15 K) [J/K/mol] | molar heat capacity at constant pressure ([2]; 323.15 K) [J/K/mol] | molar heat capacity at constant pressure ([2]; 333.15 K) [J/K/mol] | molar heat capacity at constant pressure ([2]; 343.15 K) [J/K/mol] | also measured |
| --- | --- | --- | --- | --- | --- | --- | --- | --- | --- | --- | --- | --- | --- | --- | --- | --- | --- | --- | --- | --- | --- |
| CC(C)[C@H](N)C(=O)[O-].CCCC[P+](CCCC)(CCCC)CCCC [tetrabutylphosphonium L-valinate] | 216.9 ± 22 | 932.1 ± 4.7 | 120 ± 7.8 | 926 ± 4.7 | 70.8 ± 2.5 | 919.9 ± 4.6 | 44.8 ± 1.3 | 913.9 ± 4.5 | 29.6 ± 0.9 | 908 ± 4.5 | 20.3 ± 0.6 | 902.1 ± 4.4 | -65.56 ± 4 | 743.7 ± 75 | 747.4 ± 76 | 751.6 ± 76 | 761.3 ± 77 | 771.5 ± 78 | 781.2 ± 79 | 791.4 ± 80 | thermal conductivity ([1]; 313.15 K): 0.157 ± 0.01 W/m/K; thermal conductivity ([1]; 323.15 K): 0.156 ± 0.01 W/m/K; thermal conductivity ([1]; 333.15 K): 0.155 ± 0.01 W/m/K; thermal conductivity ([1]; 343.15 K): 0.154 ± 0.01 W/m/K; thermal conductivity ([1]; 353.15 K): 0.153 ± 0.01 W/m/K; Normal melting temperature ([1]; Crystal, DTA): 25.77 ± 0.5 °C; molar heat capacity at constant pressure ([2]; 353.15 K): 801.1 ± 81 J/K/mol; molar heat capacity at constant pressure ([2]; 363.15 K): 810.9 ± 82 J/K/mol |
| CCCC[P+](CCCC)(CCCC)CCCC.N[C@@H](CO)C(=O)[O-] [tetrabutylphosphonium L-serinate] | 395.4 ± 56 | 983 ± 5.2 | 209.4 ± 21 | 976.9 ± 5.2 | 122.9 ± 8.2 | 970.8 ± 5.1 | 77.6 ± 3.1 | 964.8 ± 5 | 49.7 ± 1.5 | 958.9 ± 5 | 34.1 ± 1 | 953 ± 4.9 | -59.38 ± 4 | 742 ± 75 | 748.5 ± 76 | 755.1 ± 76 | 765.6 ± 77 | 776.5 ± 78 | 787.4 ± 80 | 797.6 ± 81 | mass density ([1]; 293.15 K): 995.5 ± 5.3 kg/m3; viscosity ([1]; 298.15 K): 1143 ± 240 mPa·s; mass density ([1]; 298.15 K): 992.3 ± 5.3 kg/m3; viscosity ([1]; 303.15 K): 778.4 ± 150 mPa·s; mass density ([1]; 303.15 K): 989.2 ± 5.3 kg/m3; molar heat capacity at constant pressure ([2]; 353.15 K): 807.8 ± 82 J/K/mol; molar heat capacity at constant pressure ([2]; 363.15 K): 814.7 ± 82 J/K/mol |
| CCCC[N+](C)(CCCC)CCCC.C[C@@H](O)[C@H](N)C(=O)[O-] [N,N-dibutyl-N-methyl-1-butanaminium L-threoninate] | 1845 ± 450 | 990 ± 5.3 | 791.3 ± 150 | 983.7 ± 5.2 | 377.6 ± 52 | 977.7 ± 5.2 | 200.6 ± 20 | 971.7 ± 5.1 | 110.9 ± 6.7 | 965.7 ± 5 | 66.2 ± 2.1 | 959.8 ± 5 | -51.94 ± 4 | 748.5 ± 76 | 752.6 ± 76 | 757.1 ± 76 | 766.9 ± 78 | 777.4 ± 78 | 789.2 ± 80 | 801 ± 81 | mass density ([1]; 293.15 K): 1002.6 ± 5.4 kg/m3; viscosity ([1]; 298.15 K): 8368 ± 2900 mPa·s; thermal conductivity ([1]; 298.15 K): 0.16 ± 0.01 W/m/K; mass density ([1]; 298.15 K): 999.5 ± 5.4 kg/m3; viscosity ([1]; 303.15 K): 4916 ± 1500 mPa·s; thermal conductivity ([1]; 303.15 K): 0.159 ± 0.01 W/m/K; mass density ([1]; 303.15 K): 996.4 ± 5.4 kg/m3; thermal conductivity ([1]; 313.15 K): 0.158 ± 0.01 W/m/K; thermal conductivity ([1]; 323.15 K): 0.157 ± 0.01 W/m/K; thermal conductivity ([1]; 333.15 K): 0.156 ± 0.01 W/m/K; thermal conductivity ([1]; 343.15 K): 0.155 ± 0.01 W/m/K; thermal conductivity ([1]; 353.15 K): 0.154 ± 0.01 W/m/K; molar heat capacity at constant pressure ([2]; 353.15 K): 811.5 ± 82 J/K/mol; molar heat capacity at constant pressure ([2]; 363.15 K): 821.1 ± 83 J/K/mol |
